pEC50: −log10 of the molar value.
Key:
Assay type in all cases: functional, organism-based
[1] = test system: Enterovirus C; test: Antiviral activity against Poliovirus 10235 serotype PV1 obtained from circulating vaccine infected in […] LLC-MK2 cells assessed as inhibition of viral-replication induced cytopathic effect; details: 10235 serotype PV1, LLC-MK2
[2] = test system: Enterovirus C; test: Antiviral activity against Poliovirus 10236 serotype PV1 obtained from circulating vaccine infected in […] LLC-MK2 cells assessed as inhibition of viral-replication induced cytopathic effect; details: 10236 serotype PV1, LLC-MK2
[3] = test system: Enterovirus C; test: Antiviral activity against Poliovirus 10238 serotype PV1 obtained from circulating vaccine infected in […] LLC-MK2 cells assessed as inhibition of viral-replication induced cytopathic effect; details: 10238 serotype PV1, LLC-MK2
[4] = test system: Enterovirus C; test: Antiviral activity against Poliovirus 10237 serotype PV1 obtained from circulating vaccine infected in […] LLC-MK2 cells assessed as inhibition of viral-replication induced cytopathic effect; details: 10237 serotype PV1, LLC-MK2
[5] = test system: Enterovirus C; test: Antiviral activity against Poliovirus 10239 serotype PV1 obtained from circulating vaccine infected in […] LLC-MK2 cells assessed as inhibition of viral-replication induced cytopathic effect; details: 10239 serotype PV1, LLC-MK2
[6] = test system: Enterovirus C; test: Antiviral activity against Poliovirus 10240 serotype PV1 obtained from circulating vaccine infected in […] LLC-MK2 cells assessed as inhibition of viral-replication induced cytopathic effect; details: 10240 serotype PV1, LLC-MK2
[7] = test system: Enterovirus C; test: Antiviral activity against Poliovirus 10241 serotype PV1 obtained from circulating vaccine infected in […] LLC-MK2 cells assessed as inhibition of viral-replication induced cytopathic effect; details: 10241 serotype PV1, LLC-MK2
[8] = test system: Enterovirus C; test: Antiviral activity against Poliovirus 10242 serotype PV1 obtained from circulating vaccine infected in […] LLC-MK2 cells assessed as inhibition of viral-replication induced cytopathic effect; details: 10242 serotype PV1, LLC-MK2
[9] = test system: Enterovirus C; test: Antiviral activity against Poliovirus 10690 serotype PV1 obtained from circulating vaccine infected in […] LLC-MK2 cells assessed as inhibition of viral-replication induced cytopathic effect; details: 10690 serotype PV1, LLC-MK2
[10] = test system: Enterovirus C; test: Antiviral activity against Poliovirus 10691 serotype PV1 obtained from circulating vaccine infected in […] LLC-MK2 cells assessed as inhibition of viral-replication induced cytopathic effect; details: 10691 serotype PV1, LLC-MK2
[11] = test system: Enterovirus C; test: Antiviral activity against Poliovirus 10692 serotype PV1 obtained from circulating vaccine infected in […] LLC-MK2 cells assessed as inhibition of viral-replication induced cytopathic effect; details: 10692 serotype PV1, LLC-MK2
[12] = test system: Enterovirus C; test: Antiviral activity against Poliovirus 10693 serotype PV1 obtained from circulating vaccine infected in […] LLC-MK2 cells assessed as inhibition of viral-replication induced cytopathic effect; details: 10693 serotype PV1, LLC-MK2
[13] = test system: Enterovirus C; test: Antiviral activity against Poliovirus 10694 serotype PV1 obtained from immunodeficient chronic excretor infected in […] LLC-MK2 cells assessed as inhibition of viral-replication induced cytopathic effect; details: 10694 serotype PV1, LLC-MK2
[14] = test system: Enterovirus C; test: Antiviral activity against Poliovirus 10695 serotype PV1 obtained from immunodeficient chronic excretor infected in […] LLC-MK2 cells assessed as inhibition of viral-replication induced cytopathic effect; details: 10695 serotype PV1, LLC-MK2
[15] = test system: Enterovirus C; test: Antiviral activity against Poliovirus 10668 serotype PV1 obtained from immunodeficient chronic excretor infected in […] LLC-MK2 cells assessed as inhibition of viral-replication induced cytopathic effect; details: 10668 serotype PV1, LLC-MK2
[16] = test system: Enterovirus C; test: Antiviral activity against Poliovirus 10689 serotype PV1 obtained from immunodeficient chronic excretor infected in […] LLC-MK2 cells assessed as inhibition of viral-replication induced cytopathic effect; details: 10689 serotype PV1, LLC-MK2
[17] = test system: Enterovirus C; test: Antiviral activity against Poliovirus 10223 serotype PV1 obtained from immunodeficient chronic excretor infected in […] LLC-MK2 cells assessed as inhibition of viral-replication induced cytopathic effect; details: 10223 serotype PV1, LLC-MK2
[18] = test system: Enterovirus C; test: Antiviral activity against Poliovirus 10222 serotype PV1 obtained from immunodeficient chronic excretor infected in […] LLC-MK2 cells assessed as inhibition of viral-replication induced cytopathic effect; details: 10222 serotype PV1, LLC-MK2
[19] = test system: Enterovirus C; test: Antiviral activity against Poliovirus 10225 serotype PV1 obtained from immunodeficient chronic excretor infected in […] LLC-MK2 cells assessed as inhibition of viral-replication induced cytopathic effect; details: 10225 serotype PV1, LLC-MK2
[20] = test system: Enterovirus C; test: Antiviral activity against Poliovirus 10224 serotype PV1 obtained from immunodeficient chronic excretor infected in […] LLC-MK2 cells assessed as inhibition of viral-replication induced cytopathic effect; details: 10224 serotype PV1, LLC-MK2
[21] = test system: Enterovirus C; test: Antiviral activity against Poliovirus Brunhilde serotype PV1 infected in […] LLC-MK2 cells assessed as inhibition of viral-replication induced cytopathic effect
[22] = test system: Enterovirus C; test: Antiviral activity against Poliovirus Mahoney serotype PV1 infected in […] LLC-MK2 cells assessed as inhibition of viral-replication induced cytopathic effect
[23] = test system: Enterovirus C; test: Antiviral activity against Poliovirus PV1-LSc/2ab serotype PV1 vaccine-derived infected in […] LLC-MK2 cells assessed as inhibition of viral-replication induced cytopathic effect; details: PV1-LSc/2ab serotype PV1, LLC-MK2
[24] = test system: Enterovirus C; test: Antiviral activity against Poliovirus 10229 serotype PV2 obtained from circulating vaccine infected in […] LLC-MK2 cells assessed as inhibition of viral-replication induced cytopathic effect; details: 10229 serotype PV2, LLC-MK2
[25] = test system: Enterovirus C; test: Antiviral activity against Poliovirus 10230 serotype PV2 obtained from circulating vaccine infected in […] LLC-MK2 cells assessed as inhibition of viral-replication induced cytopathic effect; details: 10230 serotype PV2, LLC-MK2
[26] = test system: Enterovirus C; test: Antiviral activity against Poliovirus 10231 serotype PV2 obtained from circulating vaccine infected in […] LLC-MK2 cells assessed as inhibition of viral-replication induced cytopathic effect; details: 10231 serotype PV2, LLC-MK2
[27] = test system: Enterovirus C; test: Antiviral activity against Poliovirus 10232 serotype PV2 obtained from circulating vaccine infected in […] LLC-MK2 cells assessed as inhibition of viral-replication induced cytopathic effect; details: 10232 serotype PV2, LLC-MK2
[28] = test system: Enterovirus C; test: Antiviral activity against Poliovirus 10233 serotype PV2 obtained from circulating vaccine infected in […] LLC-MK2 cells assessed as inhibition of viral-replication induced cytopathic effect; details: 10233 serotype PV2, LLC-MK2
[29] = test system: Enterovirus C; test: Antiviral activity against Poliovirus 10234 serotype PV2 obtained from circulating vaccine infected in […] LLC-MK2 cells assessed as inhibition of viral-replication induced cytopathic effect; details: 10234 serotype PV2, LLC-MK2
[30] = test system: Enterovirus C; test: Antiviral activity against Poliovirus 10219 serotype PV2 obtained from circulating vaccine infected in […] LLC-MK2 cells assessed as inhibition of viral-replication induced cytopathic effect; details: 10219 serotype PV2, LLC-MK2
[31] = test system: Enterovirus C; test: Antiviral activity against Poliovirus 10220 serotype PV2 obtained from circulating vaccine infected in […] LLC-MK2 cells assessed as inhibition of viral-replication induced cytopathic effect; details: 10220 serotype PV2, LLC-MK2

COc1ccc(OCc2ccc(COc3c(Cl)cccc3Cl)cc2)c(Cl)c1 was tested, and the pEC50 [1] was 7.74, the pEC50 [2] was 7.54 and the pEC50 [3] was 7.85. The pEC50 [4] was 7.96, the pEC50 [5] was 7.85 and the pEC50 [6] was 7.82. For the same compound, the pEC50 [7] was 7.08, the pEC50 [8] was 7.77 and the pEC50 [9] was 7.54. The pEC50 [10] was 7.74, the pEC50 [11] was 7.54 and the pEC50 [12] was 8.10. It also gave a pEC50 [13] of 7.85, a pEC50 [14] of 8.10 and a pEC50 [15] of 7.68. For the same compound, the pEC50 [16] was 7.38, the pEC50 [17] was 8.00 and the pEC50 [18] was 7.82. For the same compound, the pEC50 [19] was 7.77, the pEC50 [20] was 7.16 and the pEC50 [21] was 7.74. The pEC50 [22] was 7.12, the pEC50 [23] was 7.77 and the pEC50 [24] was 7.70. For the same compound, the pEC50 [25] was 7.44, the pEC50 [26] was 7.55 and the pEC50 [27] was 7.72. For the same compound, the pEC50 [28] was 7.62, the pEC50 [29] was 8.05 and the pEC50 [30] was 7.64. For the same compound, the pEC50 [31] was 8.00.
